Laboratory results published in ChEMBL document CHEMBL4330117, “Synthesis, biological evaluation and molecular docking of benzimidazole grafted benzsulfamide-containing pyrazole ring derivatives as novel tubulin polymerization inhibitors” (Bioorg Med Chem, 2019).
Calls of active or inactive are those of the source. The calls are words filed in the database; no cut-off is given here.

Assays:
A549 = assay: Antiproliferative activity against human A549 cells after 24 hrs by MTT assay; type: functional, cell-based; details: A549, 24 h
HeLa = assay: Antiproliferative activity against human HeLa cells after 24 hrs by MTT assay; type: functional, cell-based
[1] = Cytotoxicity against HEK293T cells after 24 hrs by MTT assay; type: cell-based, HEK-293T; details: human
Tubulin (Bos taurus) [2] = molecular target: T1, Tubulin (Bos taurus) (UniProt Q6B856+Q862L2+Q862F3); assay: Inhibition of vinblastine binding to bovine brain tubulin at 5 uM
HepG2 = assay: Antiproliferative activity against human HepG2 cells after 24 hrs by MTT assay; type: functional, cell-based; details: HepG2, 24 h
Tubulin (Bos taurus) [3] = molecular target: T1, Tubulin (Bos taurus); assay: Inhibition of [3H]colchicine binding to bovine brain tubulin at 5 uM
MCF7 = assay: Antiproliferative activity against human MCF7 cells after 24 hrs by MTT assay; type: functional, cell-based; details: MCF7, 24 h
[4] = Cytotoxicity against mouse primary hepatocytes after 24 hrs by MTT assay; type: cell-based, Hepatocyte
Rattus norvegicus = assay: Antitumor activity against rat hepatoma H22 cells implanted in mouse assessed as reduction in tumor volume at 3 mg/kg, ip measured after 8 to 28 days; type: functional, organism-based
[5] = Toxicity in mouse xenografted with rat H22 cells assessed as weight loss at 3 mg/kg, ip measured after 28 days; type: organism-based; details: in vivo, 672 h

SMILES	IC50 (A549) [µM]	IC50 (HeLa) [µM]	CC50 at 24 h [1] [µM]	inhibition (Tubulin (Bos taurus) [2]) [%]	IC50 (HepG2) [µM]	inhibition (Tubulin (Bos taurus) [3]) [%]	IC50 (MCF7) [µM]	CC50 at 24 h [4] [µM]	Activity (Rattus norvegicus)	Activity [5]
Cc1ccc(-c2nn(-c3ccccc3)cc2-c2nc3ccccc3n2S(=O)(=O)c2ccc(Br)cc2)cc1	1.86	2.34	159	-0.38 to 1.4	3.04	48	3.16	> 300	–	–
Cc1ccc(-c2nn(-c3ccccc3)cc2-c2nc3ccccc3[nH]2)cc1	4.01	4.95	187	0.05	6.26	40	7.26	> 300	–	–
O=[N+]([O-])c1ccc(S(=O)(=O)n2c(-c3cn(-c4ccccc4)nc3-c3ccc(C(F)(F)F)cc3)nc3ccccc32)cc1	0.79	0.95	163	0.14	1.07	63	1.13	178	–	–
COc1ccc(S(=O)(=O)n2c(-c3cn(-c4ccccc4)nc3-c3ccc(C(F)(F)F)cc3)nc3ccccc32)cc1	0.17	0.25	> 300	0.03	0.37	85	0.42	87.4	–	–
O=S(=O)(c1ccc(F)cc1)n1c(-c2cn(-c3ccccc3)nc2-c2ccc(C(F)(F)F)cc2)nc2ccccc21	1.74	2.19	157	0.65	2.73	54	3.12	83.3	–	–
O=S(=O)(c1ccc(Cl)cc1)n1c(-c2cn(-c3ccccc3)nc2-c2ccc(C(F)(F)F)cc2)nc2ccccc21	2.56	3.06	75.3	0.73	3.93	40	4.32	173	–	–
O=[N+]([O-])c1ccc(S(=O)(=O)n2c(-c3cn(-c4ccccc4)nc3-c3ccc(F)cc3)nc3ccccc32)cc1	1.03	1.17	189	-0.04 to 0.3	1.34	51	1.37	> 300	–	–
Cc1ccc(-c2nn(-c3ccccc3)cc2-c2nc3ccccc3n2S(=O)(=O)c2ccccc2)cc1	0.76	0.82	138	0.21	0.96	74	0.83	189	–	–
O=S(=O)(c1ccc(Br)cc1)n1c(-c2cn(-c3ccccc3)nc2-c2ccc(C(F)(F)F)cc2)nc2ccccc21	1.69	1.86	185	-0.07 to 2.1	2.16	52	2.47	167	–	–
COc1cc2c(c(OC)c1OC)-c1ccc(OC)c(=O)cc1[C@@H](NC(C)=O)CC2 [COLCHICINE]	0.22	0.36	129	–	0.42	–	0.44	153	–	–
FC(F)(F)c1ccc(-c2nn(-c3ccccc3)cc2-c2nc3ccccc3[nH]2)cc1	3.62	4.67	167	-0.03 to 2.1	6.03	44	6.33	159	–	–
O=S(=O)(c1ccc(Cl)cc1)n1c(-c2cn(-c3ccccc3)nc2-c2ccc(F)cc2)nc2ccccc21	3.17	3.45	93.1	-2.09 to 2.7	4.23	48	4.96	231	–	–
O=S(=O)(c1ccc(C(F)(F)F)cc1)n1c(-c2cn(-c3ccccc3)nc2-c2ccc(C(F)(F)F)cc2)nc2ccccc21	0.86	0.97	63.2	0.05	1.12	54	1.24	137	–	–
COc1ccc(/C=C\c2cc(OC)c(OC)c(OC)c2)cc1O [COMBRETASTATIN A4]	0.16	0.24	162	–	0.33	–	0.18	178	Active	Toxic
O=S(=O)(c1ccc(Br)cc1)n1c(-c2cn(-c3ccccc3)nc2-c2ccc(F)cc2)nc2ccccc21	1.72	2.04	239	3.02	2.55	51	2.63	> 300	–	–
O=S(=O)(c1ccc(F)cc1)n1c(-c2cn(-c3ccccc3)nc2-c2ccc(F)cc2)nc2ccccc21	2.37	2.44	218	1.32	3.52	48	3.67	174	–	–
Cc1ccc(-c2nn(-c3ccccc3)cc2-c2nc3ccccc3n2S(=O)(=O)c2ccc(C)cc2)cc1	0.46	0.48	79.3	0.18	0.52	66	0.57	102	–	–
Cc1ccc(C)c(S(=O)(=O)n2c(-c3cn(-c4ccccc4)nc3-c3ccc(F)cc3)nc3ccccc32)c1	0.2	0.32	54.2	0.62	0.41	88	0.43	122	–	–
Cc1ccc(-c2nn(-c3ccccc3)cc2-c2nc3ccccc3n2S(=O)(=O)c2ccc(C(F)(F)F)cc2)cc1	1.46	1.52	182	0.21	1.93	55	2.34	89.3	–	–
Cc1ccc(-c2nn(-c3ccccc3)cc2-c2nc3ccccc3n2S(=O)(=O)c2ccc(F)cc2)cc1	3.24	3.67	128	0.07	5.06	53	5.27	167	–	–
O=S(=O)(c1ccc(C(F)(F)F)cc1)n1c(-c2cn(-c3ccccc3)nc2-c2ccc(F)cc2)nc2ccccc21	1.28	1.43	241	0.51	1.68	50	1.58	55.3	–	–
Cc1ccc(-c2nn(-c3ccccc3)cc2-c2nc3ccccc3n2S(=O)(=O)c2ccc(Cl)cc2)cc1	3.55	4.06	167	0.24	5.52	38	5.93	216	–	–
O=S(=O)(c1ccccc1)n1c(-c2cn(-c3ccccc3)nc2-c2ccc(F)cc2)nc2ccccc21	0.55	0.68	96.3	0.05	0.72	62	0.69	231	–	–
COc1ccc(S(=O)(=O)n2c(-c3cn(-c4ccccc4)nc3-c3ccc(F)cc3)nc3ccccc32)cc1	0.35	0.39	37.3	2.98	0.47	77	0.53	105	–	–
O=S(=O)(c1ccccc1)n1c(-c2cn(-c3ccccc3)nc2-c2ccc(C(F)(F)F)cc2)nc2ccccc21	0.48	0.56	128	0.52	0.59	61	0.63	186	–	–
Cc1ccc(-c2nn(-c3ccccc3)cc2-c2nc3ccccc3n2S(=O)(=O)c2cc(C)ccc2C)cc1	0.27	0.37	82.2	0.07	0.46	82	0.51	231	–	–
